In paper PMC5406667, “Antiretroviral Activity Of a Novel Pyrimidyl-Di(Diazaspiroalkane) Derivative” (Acta Naturae, 2017):
Where “and” joins values, the source holds several entries; their conditions need not be identical. Equal entries are not always repeated. Where two headings read alike, the source gives them in different places.

Tests used:
[1] = parameters: method as in PMID 15341064; conditions: degradation accompanied by the formation of nitric oxide; cited from earlier work
cellular HSPG = system: cellular HSPG; parameters: method as in earlier work; conditions: prevents virus binding; cited from earlier work
herpes viruses = conditions: cited from earlier work
HIV-1 N119 = system: HIV-1 N119
Description: (§1) Our studies were carried out at the National Cancer Institute (National Cancer Institute, Bethesda, Maryland, USA). Antiviral activity was assessed using the XTT test with various concentrations of the compound and incubation of cells (CEM-SS, MT-2, MT-4) in the presence of serial dilutions of dispiropiperazine 2 (dissolved in dimethyl sulphoxide, DMSO) for 6 days at a temperature of 37°C and humidified atmosphere with 5% CO2, followed by addition of XTT reagents. The method is based on a spectrometric measurement of the level of formazan transformed by living cells from a water-soluble tetrazolium salt, XTT.
(§2) The following HIV strains were used: the reference HIV-1 IIIB strain; the AZT-sensitive HIV-1 6S, HIV- 1 RF strains; the drug-resistant HIV-1 N119 strains (resistant to nevirapine, Y181C mutation), HIV-1 DPS (resistant to diphenyl sulfone, Y181C mutation), and HIV-1 A-17 (resistant to nevirapine, K103N and Y181C mutations). We also used the HIV-2 ROD strain and simian immunodeficiency virus SIV MAC 251.

HIV-1 6S = system: HIV-1 6S
Description: as §1, §2

HIV-1 IIIB = conditions: MT-4 cells
Description: as §1, §2

HIV-1 A-17 = conditions: for IC50: HIV-1 A-17 (resistant to nevirapine, K103N and Y181C), 6 days, XTT
Description: as §1, §2

SIV MAC 251 = conditions: SIV MAC 251, MT-4 cells
Description: as §1, §2

HIV-1 RF = conditions: CEM-SS cells
Description: as §1, §2

HIV-1 DPS = conditions: MT-4 cells
Description: as §1, §2

HIV-2 ROD = conditions: CEM-SS cells
Description: as §1, §2

MT-4 = conditions: read-out: CC50 (cytotoxic concentration), MT-4 cells
Description: as §1

MT-2 = conditions: read-out: CC50 (cytotoxic concentration), MT-2 cells
Description: as §1

CEM-SS = conditions: read-out: CC50 (cytotoxic concentration), CEM-SS cells
Description: as §1

In the case of `[O-][n+]1onc2ncnc(N3CC[N+]4(CC3)CC[N+]3(CCN(c5ncnc6no[n+]([O-])c56)CC3)CC4)c21` [Compound 1, N,N’-(bis-1-oxido[1,2,5]oxadiazolo [3,4d]-nitropyrimidine-7-il)-3,12-diaza-6,9-diazonia(5,2,5,2)dispirohexane dichloride], the Metabolic stability [1] is given as “metabolic instability”, the “Binding to cellular HSPG” value (cellular HSPG) is given as “effective reversible binding to cellular HSPG” and the “Inhibition of replication in herpes viruses” value (herpes viruses) is given as “inhibits replication in herpes viruses”.

For “3,3’-(5-nitropyrimidine-4,6-diyl)bis-3,12-diaza-6,9-diazoniadispiro[ 5.2.5.2]hexadecane tetrachloride dihydrochloride [Compound 2]”, the IC50 (HIV-1 N119; HIV-1 N119 (resistant to nevirapine, Y181C), MT-4 cells, 6 days, XTT) was 31.7 µM, the “TI (CC50/IC50), therapeutic index” value (HIV-1 N119; HIV-1 N119, MT-4 cells) was 6.3 and the IC50 (HIV-1 6S) was 1.37 µM and 1.4 µM. The “TI (CC50/IC50), therapeutic index” value (HIV-1 6S; HIV-1 6S, MT-2 cells) was 71.4, the IC50 (HIV-1 IIIB; HIV-1 IIIB (reference strain), 6 days, XTT) was 5.7 µM and the “TI (CC50/IC50), therapeutic index” value (HIV-1 IIIB; HIV-1 IIIB) was 35.0. For the same compound, the IC50 (HIV-1 A-17; MT-2 cells) was 4.7 µM, the IC50 (HIV-1 A-17; MT-4 cells) was 33.7 µM and the “TI (CC50/IC50), therapeutic index” value (HIV-1 A-17; HIV-1 A-17, MT-2 cells) was 16.7. The “TI (CC50/IC50), therapeutic index” value (HIV-1 A-17; HIV-1 A-17, MT-4 cells) was 5.9, the “TI (CC50/IC50), therapeutic index” value (SIV MAC 251) was 31.5 and the IC50 (SIV MAC 251; 6 days, XTT) was 6.3 µM. For the same compound, the IC50 (HIV-1 RF; HIV-1 RF (AZT-sensitive), 6 days, XTT) was 150 µM, the “TI (CC50/IC50), therapeutic index” value (HIV-1 RF; HIV-1 RF) was 1.3 and the IC50 (HIV-1 DPS; HIV-1 DPS (resistant to diphenyl sulfone, Y181C), 6 days, XTT) was 1.17 µM and 1.2 µM. For the same compound, the “TI (CC50/IC50), therapeutic index” value (HIV-1 DPS; HIV-1 DPS) was 170.0, the “TI (CC50/IC50), therapeutic index” value (HIV-2 ROD) was 15.0 and the IC50 (HIV-2 ROD; 6 days, XTT) was 13.3 µM. It also gave a CC50 (MT-4; HIV-1 A-17 experiment) of 200 µM, a CC50 (MT-4; HIV-1 DPS experiment) of 200 µM and a CC50 (MT-4; HIV-1 IIIB experiment) of 200 µM. The CC50 (MT-4; HIV-1 N119 experiment) was 200 µM, the CC50 (MT-4; SIV MAC 251 experiment) was 200 µM and the CC50 (MT-2; HIV-1 6S experiment) was 98.2 µM. The CC50 (MT-2; HIV-1 A-17 experiment) was 79.1 µM, the CC50 (CEM-SS; HIV-1 RF experiment) was 197 µM and the CC50 (CEM-SS; HIV-2 ROD experiment) was 200 µM.
